The values below come from patent US8992890B2, “Absorbent dressings with painkilling activity” (Fidia Farmaceutici S.p.A., priority 2011, dated 2015).

The data set in a line: Release of diclofenac from the formulation, in vitro, Franz cell, rabbit plasma. Type of data set: in vitro ADME. As to the method:
The evaluation of the release kinetics of Diclofenac from the formulation was conducted with a Franz cell, comparing the release of the diclofenac contained in the formulation described in example 1 with an identically formulated composition containing diclofenac sodium (DCFNa) instead of diclofenac acid, at the same percentage.
The Franz cell is an instrument known to the skilled person; briefly, and very simply, it consists of two chambers, the lower one being called the receptor, while the upper one is called the donor. The two cells are separated by a porous membrane and connected to one another; the medium in which the diffusion of the active ingredient in question will be evaluated is loaded into the receptor chamber, and the product to be evaluated is loaded into the donor chamber. The medium flows against the separator membrane, and therefore comes into contact with the product loaded into the donor chamber; the active constituent spreads through the membrane to the receptor chamber, from which aliquots are sampled for testing to determine the extent of release of the active ingredient.
In this specific case, the receptor chamber was loaded with rabbit plasma (10.2 ml); approx. 73 mg of the formulation of Example 1 based on diclofenac acid (DCF/H+), accurately weighed, was placed in the donor chamber, distributed on a cellulose acetate membrane with a porosity (cut-off) of 0.2μ, wetted with rabbit plasma, and an area of 3.46 cm2. When the operating procedures of the Franz cell had been activated, 0.3 ml samples of rabbit serum were taken from the receptor chamber, which was topped up with fresh serum from time to time. The diclofenac is determined by spectrophotometric analysis, calibrating the instrument with rabbit plasma to take account of the effect of the medium on the release of the medicament.
The same procedure was followed to measure the release of diclofenac sodium (DCF/Na) formulated identically to the formulation of Example 1 in qualitative and quantitative terms.

As for `O=C(O)Cc1ccccc1Nc1c(Cl)cccc1Cl` [diclofenac acid], the duration of release result (formulation of Example 1) is listed as “at least 48 hours”. The “drug released after approx. 8 hours” value (formulation of Example 1, approx. 8 hours) is recorded as 60%.
For `O=C(O)Cc1ccccc1Nc1c(Cl)cccc1Cl` [diclofenac sodium], the “time within which the drug is exhausted” value (formulated identically to Example 1 (0.8%)) is no more than 24 h. Also, under “formulated identically to Example 1 (0.8%), first 4 hours”, the “medicament released in the first 4 hours” value is “over 90%”.
